Measured values: ChEMBL document CHEMBL1158329, “Four new cytotoxic germacranolides from Carpesium divaricatum” (1997)
Converted amounts (≈) assume the structure as drawn.

How the values were obtained:
Format in all cases: functional
Conditions in all cases: read-out: ED50 (the source's name)
A549 = assay: Cytotoxicity against human A549 cells by SRB assay
XF498 = assay: Cytotoxicity against human XF498 cells by SRB assay
SK-OV-3 = assay: Cytotoxicity against human SKOV3 cells by SRB assay
SK-MEL-2 = assay: Cytotoxicity against human SK-MEL-2 cells by SRB assay
HCT-15 = assay: Cytotoxicity against human HCT15 cells by SRB assay

Structure (SMILES) | EC50 (A549) | EC50 (XF498) | EC50 (SK-OV-3) | EC50 (SK-MEL-2) | EC50 (HCT-15)
C=C1C(=O)O[C@@H]2[C@@H]1[C@H](OC(=O)/C(C)=C\C)C(=O)[C@@H](C)C[C@H](O)C[C@](C)(O)[C@H]2OC(=O)C(C)CC (stereo not given in full) [CARDIVIN A] | 3.17 µg/mL (≈ 6.6 µM) | 1.4 µg/mL (≈ 2.91 µM) | 1.47 µg/mL (≈ 3.06 µM) | 1.16 µg/mL (≈ 2.41 µM) | 1.28 µg/mL (≈ 2.66 µM)
C=C1C(=O)O[C@@H]2[C@@H]1[C@H](OC(=O)C(C)CC)C(=O)[C@@H](C)C[C@H](O)C[C@](C)(O)[C@H]2OC(=O)C(C)C (stereo not given in full) [CARDIVIN B] | 3.71 µg/mL (≈ 7.92 µM) | 1.69 µg/mL (≈ 3.61 µM) | 2.24 µg/mL (≈ 4.78 µM) | 1.45 µg/mL (≈ 3.09 µM) | 2.06 µg/mL (≈ 4.4 µM)
C=C1C(=O)O[C@@H]2[C@@H]1[C@H](OC(=O)C(C)C)C(=O)[C@@H](C)C[C@H](O)C[C@](C)(O)[C@H]2OC(=O)/C(C)=C\C [CARDIVIN C] | 3.12 µg/mL (≈ 6.69 µM) | 1.31 µg/mL (≈ 2.81 µM) | 1.6 µg/mL (≈ 3.43 µM) | 1.08 µg/mL (≈ 2.31 µM) | 1.38 µg/mL (≈ 2.96 µM)
C=C1C(=O)O[C@@H]2[C@@H]1[C@H](OC(=O)C(C)C)C(=O)[C@@H](C)C[C@H](O)C[C@](C)(O)[C@H]2OC(=O)C(C)C [CARDIVIN D] | 8.36 µg/mL (≈ 18.4 µM) | 3.05 µg/mL (≈ 6.71 µM) | 3.78 µg/mL (≈ 8.32 µM) | 1.88 µg/mL (≈ 4.14 µM) | 3 µg/mL (≈ 6.6 µM)
COc1cccc2c1C(=O)c1c(O)c3c(c(O)c1C2=O)C[C@@](O)(C(=O)CO)C[C@@H]3O[C@H]1C[C@H](N)[C@H](O)[C@H](C)O1 [DOXORUBICIN] | 0.12 µg/mL (≈ 0.221 µM) | 0.23 µg/mL (≈ 0.423 µM) | 0.13 µg/mL (≈ 0.239 µM) | 0.11 µg/mL (≈ 0.202 µM) | 2.4 µg/mL (≈ 4.42 µM)
